Assay results taken from US11318141B2, “Methods and compositions related to STK1-targeted small molecules as antibiotic resistance breakers” (Ohio State Innovation Foundation, priority 2017, dated 2022).

Columns and labels:
[1] = test system: S. aureus MW2ΔSTK1 biofilms; test: Biofilm formation, crystal violet stain method; format: cell-based, Staphylococcus aureus; settings: 25 μM, further 48 h
[2] = test system: S. aureus MW2 wild-type biofilms; test: Biofilm formation, crystal violet stain method; format: cell-based, Staphylococcus aureus; settings: 25 μM
Protocol: (§1) The ability to form biofilms by S. aureus MW2 strain in the absence and presence of Inh2-B1 was determined using the crystal violet stain method. Briefly, the assay was carried out in 24-well tissue culture plates in a final volume of 500 μl of TSB broth with or without Inh2-B1 (25 μM). The culture plates were then seeded with 1:1000 dilution of the freshly grown S. aureus cultures to late log phase (O.D600=0.8) and further incubated for 48 h. At the end of incubation, the culture medium from each well was carefully removed and stained with 1% Crystal violet for 5 min. The unbound stain was then removed by repeated washings with distilled water and air dried. The stained biofilms were then extracted and dissolved in 500 μl 100% of isopropanol. Aliquots of fully suspended biofilms (100 μl/well) in isopropanol from each well were spectrophotometrically (λ=550 nm) analyzed using a microtiter plate reader (Molecular Devices). The test samples were analyzed after subtracting the background values obtained from wells containing an only medium. All results were obtained with three independent cultures each in three wells. In another set of experiments. Inh2-B1 (25 μM) was added to the 48 h-grown established biofilms of S. aureus MW2 to determine the impact of Inh2-B1 on the preformed biofilms and its ability to disrupt or further formation of biofilms. For this, old medium was carefully removed to allow the minimal loss of the loosely attached apical part of the preformed biofilms and replace with 2 ml of fresh TSB medium with or without 25 μM Inh2-B1 inhibitor and incubated further for 48 h at 37° C. Subsequently, the biofilm formation or its disruption was quantitatively estimated as described above and statistically evaluated.

[3] = test system: S. aureus MW2ΔSTP1 biofilms; test: Biofilm formation, crystal violet stain method; format: cell-based, Staphylococcus aureus; settings: 25 μM
Protocol: as §1

S. aureus MW2-WT = test: S. aureus mouse septicemia model, therapeutic study; format: in vivo, CD-1 mice
Protocol: The virulence potential of the wild-type S. aureus MW2 wild-type and corresponding MW2ΔSTK1 and MW2ΔSTP1 mutants was assessed using the mouse-septicemia model. CD-1 mice (5 weeks old, 20-22 g. Charles River Laboratories, ten female mice/group and housed in a group of 5 mice/cage) were lightly anesthetized with isoflurane and injected retro-orbitally with the S. aureus MW2 or isogenic MW2Δstk1 mutant (4×10^8 CFU/0.1 ml of PBS). […] For therapeutic studies, the animals were first challenged with MW2-WT strain as described above and subsequently administered with antibiotic and/or small molecule compounds. The latter was started 4 h after the challenge and subsequently 12 h apart for 4 days post infection. Thus, Inh2-B1 (5 mg/kg body weight in 0.3 ml vehicle buffer), Ceftriaxone (10 and 25 mg/kg body weight in 0.3 ml vehicle buffer). Cefotaxime (10 mg/kg body weight), combination of Ceftriaxone (10 mg and 25 mg/kg body weight in 0.3 ml vehicle buffer) or Cefotaxime (10 mg/kg body weight) with Inh2-B1 (5 mg/kg body weight in 0.3 ml vehicle buffer), or 0.3 ml of vehicle-buffer (50 mM Tris/HCl, pH 8.8, 1.67% [v/v] DMSO). Early removal and euthanasia criteria were applied to all experimental mice showing penultimate sign(s) of the unrecoverable stage of illness, including ruffled skin with a hunch back, loss of more than 20% of body mass as compared to unchallenged mice receiving mock treatment, dyspnea, and labored gasping. All experiments were performed twice. Data were combined, and percentage survival in each group was statistically evaluated by the Log-Rank test (Kaplan-Meier) using the GraphPad Prism 6 software. P<0.05 was treated as a significant difference. On Day 3 P.I., 3-6 mice from different groups receiving treatment with a single antibiotic or combination therapy were euthanized and sacrificed, and kidneys were […] for determining the bacterial load, which was determined by counting the colony forming units in the homogenized tissue in sterile PBS buffer.

[4] = Inh2-B1 5 mg/kg plus Cefotaxime 10 mg/kg

COC(=O)c1ccc2c(=O)[nH]c3c(C(=O)Nc4ccccc4)sc(=S)n3c2c1 [Inh2-B1, Methyl 5-oxo-3-(phenylcarbamoyl)-1-thioxo-4,5dihydro[1,3]thiazolo[3,4-a]quinazoline-8-carboxylate]
effect on preformed biofilms [1]: did not affect biofilms of MW2ΔSTK1
biofilm formation in the presence of Inh2-B1 ([2]; 48 h): significantly decreased formation of biofilms
effect on preformed biofilms ([2]; further 48 h): significant reduction in biofilm formation
biofilm formation in the presence of Inh2-B1 ([3]; 48 h): significantly decreased formation of biofilms
effect on preformed biofilms ([3]; further 48 h): significant reduction in biofilm formation
number of survived animals at the end of 10 days, Cefotaxime combination compared with Ceftriaxone combination (S. aureus MW2-WT; [4]): significantly low
survival of mice, combination therapy with Cefotaxime (Inh2-B1+CT) (S. aureus MW2-WT; [4]): significantly prolonged the survival of mice
survival, combination therapy with Ceftriaxone (S. aureus MW2-WT; Inh2-B1 5 mg/kg plus Ceftriaxone 10 or 25 mg/kg i.p., ten days): 60%
S. aureus MW2 burden in kidneys (S. aureus MW2-WT; day 3 P.I., combined therapy (Inh2-B1 with Ceftriaxone or Cefotaxime) vs single or no therapy): significantly low
